Assay results published in the supplement of paper PMC4862054.
“And” between values parts separate entries of the source, which are not always exact repeats. Equal entries are not always repeated.

Columns and labels:
Conditions in all cases: incubation time: 72 h
[1] = tested on: BT-474; assay: normalised viability (% of control), CellTiter-Blue; higher = more viable cells (about 100 = DMSO control)
In short: (§1)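 384-well plates were pre-loaded with compound in 5 µl medium before 20 µl of breast cancer cell suspension was seeded. Following 72 h incubation, 2.5 µl CellTiter-Blue reagent was added for 2 h at 37 °C. Fluorescence was read at 560/590 nm and plates were normalised to vehicle (100) and a positive kill control (0), checked by Z'-factor. Normalised viability is reported at a single listed concentration of the series.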

[2] = tested on: BT-549; assay: as above
In short: as §1

[3] = tested on: CAL-148; assay: as above
In short: as §1

[4] = tested on: CAL-51; assay: as above
In short: as §1

[5] = tested on: CAL-85-1; assay: as above
In short: as §1

[6] = tested on: HCC1143; assay: as above
In short: as §1

[7] = tested on: HCC1599; assay: as above
In short: as §1

[8] = tested on: Hs578T; assay: as above
In short: as §1

[9] = tested on: MDA-MB-453; assay: as above
In short: as §1

[10] = tested on: MDA-MB-468; assay: as above
In short: as §1

[11] = tested on: MFM-223; assay: as above
In short: as §1

[12] = tested on: BT-474; assay: drug sensitivity score (DSS), CellTiter-Blue viability (DSS (AUC-based score)); higher = stronger viability inhibition; extreme values may be limits of the assay
In short: (§2)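 The drug sensitivity score was derived from the area under a fitted dose-response curve. To obtain the curves, breast cancer cells (20 µl suspension) were plated into 384-well plates with compound at 5 or 9 concentrations and kept for 72 h. Viability was measured by CellTiter-Blue fluorescence at 560/590 nm, with each plate normalised to 0.1 % DMSO and a positive kill control.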

[13] = tested on: BT-549; assay: as above
In short: as §2

[14] = tested on: CAL-148; assay: as above
In short: as §2

[15] = tested on: CAL-51; assay: as above
In short: as §2

[16] = tested on: CAL-85-1; assay: as above
In short: as §2

[17] = tested on: HCC1599; assay: as above
In short: as §2

[18] = tested on: HDQ-P1; assay: as above
In short: as §2

[19] = tested on: Hs578T; assay: as above
In short: as §2

[20] = tested on: MDA-MB-231; assay: as above
In short: as §2

[21] = tested on: MDA-MB-436; assay: as above
In short: as §2

[22] = tested on: MDA-MB-453; assay: as above
In short: as §2

[23] = tested on: MDA-MB-468; assay: as above
In short: as §2

[24] = tested on: SK-BR-3; assay: as above
In short: as §2

Cc1c(N)nc([C@H](CC(N)=O)NC[C@H](N)C(N)=O)nc1C(=O)N[C@H](C(=O)N[C@H](C)[C@@H](O)[C@H](C)C(=O)N[C@H](C(=O)NCCc1nc(-c2nc(C(=O)NCCC[S+](C)C)cs2)cs1)[C@@H](C)O)[C@@H](OC1OC(CO)C(O)C(O)C1OC1OC(CO)C(O)C(OC(N)=O)C1O)c1cnc[nH]1 (stereo not given in full) [Bleomycin]
normalised viability [%]
Conditions	3 nM	10 nM	30 nM	100 nM	1000 nM	10000 nM
[1]	–	102	–	–	97.9	98
[2]	–	87.5	–	–	57.1	62.4
[3]	88	–	82.5	87	–	–
[4]	97.6	–	96	96.3	–	–
[5]	101	–	94.9	96.6	–	–
[6]	–	74.6	–	–	64.2	49.4
[7]	–	134	–	–	112	118
[8]	–	90.3	–	–	64.3	50
[9]	103	–	106	100	–	–
[10]	–	94.6	–	–	86.6	72.7
[11]	–	106	–	–	107	100

Conditions	drug sensitivity score
[12]	0
[13]	13.6
[14]	0
[15]	0.892
[16]	0
[17]	0
[18]	0
[19]	11.3
[20]	6.41
[21]	4.58
[22]	0
[23]	0
[24]	0

Cc1cc2c(F)c(Oc3ncnn4cc(OC[C@@H](C)O)c(C)c34)ccc2[nH]1 [Brivanib]
normalised viability [%]
Conditions	0.3 nM	1 nM	3 nM	10 nM	100 nM	1000 nM
[1]	–	112	–	–	117	94.5
[2]	–	107	–	–	90.6	109
[3]	92.7	–	90.8	93.1	–	–
[4]	96.7	–	96.8	95.7	–	–
[5]	88.4	–	86.2	89.1	–	–
[6]	–	85.2	–	–	83.3	84.3
[7]	–	87.1	–	–	100	116
[8]	–	98.1	–	–	109	95.7
[9]	99.6	–	110	101	–	–
[10]	–	93.7	–	–	111	112
[11]	–	95.5	–	–	92.8	97.8

Conditions	drug sensitivity score
[12]	0
[13]	0
[14]	0
[15]	0
[16]	0
[17]	0
[18]	0
[19]	0
[20]	0
[21]	0
[22]	0
[23]	0
[24]	0

CCCCCOC(=O)Nc1nc(=O)n([C@@H]2O[C@H](C)[C@@H](O)[C@H]2O)cc1F [Capecitabine]
Conditions	normalised viability
[1], 10 nM	124% and 104%
[1], 1000 nM	120% and 108%
[1], 10000 nM	124% and 105%
[2], 10 nM	91.7% and 86.6%
[2], 1000 nM	96% and 104%
[3], 3 nM	91.9% and 96%
[3], 30 nM	89.1% and 88.1%
[3], 100 nM	92.8% and 107%
[4], 3 nM	113% and 108%
[4], 30 nM	105% and 98.2%
[4], 100 nM	103%
[5], 3 nM	87.5% and 102%
[5], 30 nM	88.5% and 90.9%
[5], 100 nM	91.8% and 103%
[6], 10 nM	77.9% and 97.9%
[6], 1000 nM	89.9% and 103%
[6], 10000 nM	84.2% and 91.9%
[7], 10 nM	99.6% and 100%
[7], 10000 nM	96.4% and 111%
[8], 10 nM	105% and 116%
[8], 1000 nM	101% and 104%
[8], 10000 nM	107% and 93.6%
[9], 3 nM	110% and 101%
[9], 30 nM	95.9% and 104%
[9], 100 nM	97% and 94%
[10], 10 nM	106% and 131%
[10], 1000 nM	108% and 104%
[10], 10000 nM	104%
[11], 10 nM	83.5% and 100%
[11], 1000 nM	93.6% and 100%
[11], 10000 nM	90.6% and 99.6%

Conditions	drug sensitivity score
[12]	0
[13]	0
[14]	0
[15]	0
[16]	0
[17]	0
[18]	0
[19]	0
[20]	0
[21]	0
[23]	0

CC(C)C[C@H](NC(=O)[C@H](CCc1ccccc1)NC(=O)CN1CCOCC1)C(=O)N[C@@H](Cc1ccccc1)C(=O)N[C@@H](CC(C)C)C(=O)[C@@]1(C)CO1 [Carfilzomib]
normalised viability [%]
Conditions	0.3 nM	1 nM	3 nM	10 nM	100 nM	1000 nM
[1]	–	107	–	–	21.8	13.9
[2]	–	90	–	–	6.79	5.9
[3]	101	–	97.8	94.5	–	–
[4]	111	–	102	81.4	–	–
[5]	107	–	86	72.1	–	–
[6]	–	91.9	–	–	23.9	14.9
[7]	–	106	–	–	64.6	38.9
[8]	–	126	–	–	1.45	1.15
[9]	115	–	38.5	17.7	–	–
[10]	–	117	–	–	3.17	2.35
[11]	–	83.4	–	–	13	14.4

Conditions	drug sensitivity score
[12]	16.1
[13]	29.2
[14]	18.8
[15]	19.6
[16]	22.2
[17]	7.66
[18]	23.7
[19]	27.6
[20]	25.5
[21]	20.5
[22]	27.8
[23]	26.8
[24]	23.7

Nc1nc(Cl)nc2c1ncn2[C@@H]1O[C@H](CO)[C@@H](O)[C@@H]1F [Clofarabine]
normalised viability [%]
Conditions	3 nM	10 nM	30 nM	100 nM	1000 nM	10000 nM
[1]	–	106	–	–	101	102
[2]	–	87.5	–	–	50.6	42.3
[3]	82.6	–	87.8	83.3	–	–
[4]	109	–	102	108	–	–
[5]	95.8	–	90.4	82.6	–	–
[6]	–	74.5	–	–	52.4	45
[7]	–	106	–	–	87.5	71.6
[8]	–	98.1	–	–	67.3	61.5
[9]	102	–	105	97.9	–	–
[10]	–	98.5	–	–	39.5	20.5
[11]	–	92.6	–	–	85.3	86.2

Conditions	drug sensitivity score
[12]	0
[13]	10.6
[14]	11.3
[15]	11.1
[16]	10.1
[17]	2.01
[18]	0
[19]	7.51
[20]	12
[21]	11.8
[22]	9.02
[23]	12.5
[24]	15.3

CCN(CC)CCOc1ccc(C(=C(Cl)c2ccccc2)c2ccccc2)cc1 [Clomifene]
normalised viability [%]
Conditions	3 nM	10 nM	30 nM	100 nM	1000 nM	10000 nM
[1]	–	118	–	–	111	17.1
[2]	–	109	–	–	96.6	36
[3]	88.2	–	94.8	101	–	–
[4]	95.6	–	90.3	98.9	–	–
[5]	91.3	–	92.4	91.2	–	–
[6]	–	86.2	–	–	84	85.2
[7]	–	93.8	–	–	106	68.1
[8]	–	105	–	–	121	59.8
[9]	116	–	114	104	–	–
[10]	–	98.2	–	–	98.1	6.16
[11]	–	102	–	–	106	28.3

Conditions	drug sensitivity score
[12]	2.94
[13]	3.64
[14]	0
[15]	0
[16]	1.08
[17]	0
[18]	1.07
[19]	0
[20]	5.53
[21]	2.07
[22]	3.38
[23]	4.91
[24]	0

C[C@@H]1C[C@H]2[C@@H]3CCC4=CC(=O)C=C[C@]4(C)[C@@]3(F)[C@@H](O)C[C@]2(C)[C@@]1(O)C(=O)CO [Dexamethasone]
normalised viability [%]
Conditions	3 nM	10 nM	30 nM	100 nM	1000 nM	10000 nM
[1]	–	110	–	–	119	118
[2]	–	93.6	–	–	90.3	93.5
[3]	93.6	–	108	99.2	–	–
[4]	106	–	91.9	95.6	–	–
[5]	102	–	93.1	110	–	–
[6]	–	76.5	–	–	89.1	81.2
[7]	–	124	–	–	82.1	86.7
[8]	–	120	–	–	122	98
[9]	110	–	78.2	76.3	–	–
[10]	–	114	–	–	112	100
[11]	–	93.4	–	–	94.2	87.2

Conditions	drug sensitivity score
[12]	0
[13]	0
[14]	0
[15]	0
[16]	0
[17]	0
[18]	0
[19]	0
[20]	0
[21]	0
[22]	7.98
[23]	0
[24]	0

CC(C)C(=O)Nc1ccc([N+](=O)[O-])c(C(F)(F)F)c1 [Flutamide]
normalised viability [%]
Conditions	3 nM	10 nM	30 nM	100 nM	1000 nM	10000 nM
[1]	–	117	–	–	115	116
[2]	–	89.7	–	–	84.3	90
[3]	95.5	–	99.9	103	–	–
[4]	118	–	108	106	–	–
[5]	101	–	91.8	101	–	–
[6]	–	82	–	–	86.3	82.5
[7]	–	105	–	–	114	118
[8]	–	96.4	–	–	109	96.7
[9]	123	–	94.8	107	–	–
[10]	–	97.6	–	–	103	111
[11]	–	89.4	–	–	84.8	109

Conditions	drug sensitivity score
[12]	0
[13]	0
[14]	0
[15]	0
[16]	0
[17]	0
[18]	0
[19]	0
[20]	0
[21]	0
[22]	0
[23]	0
[24]	0

COc1cc2c(Oc3ccc(NC(=O)C4(C(=O)Nc5ccc(F)cc5)CC4)cc3F)ccnc2cc1OCCCN1CCOCC1 [Foretinib]
normalised viability [%]
Conditions	0.3 nM	1 nM	3 nM	10 nM	100 nM	1000 nM
[1]	–	102	–	–	117	84.3
[2]	–	79	–	–	101	72
[3]	99.8	–	97.6	96.4	–	–
[4]	99.1	–	88.6	95.2	–	–
[5]	95	–	86.3	95.8	–	–
[6]	–	104	–	–	103	82.8
[7]	–	77.2	–	–	89.9	72.6
[8]	–	114	–	–	106	61
[9]	115	–	91.6	85.9	–	–
[10]	–	102	–	–	111	52.4
[11]	–	102	–	–	58.5	35

Conditions	drug sensitivity score
[12]	0
[13]	0
[14]	2.11
[15]	4.07
[16]	0
[17]	0
[18]	4.98
[19]	0.649
[20]	0
[21]	3.35
[22]	0
[23]	0
[24]	0.269
